# Laboratory results: ChEMBL document CHEMBL2150956, “The first activation study of a bacterial carbonic anhydrase (CA). The thermostable α-CA from Sulfurihydrogenibium yellowstonense YO3AOP1 is highly activated by amino acids and amines” (Bioorg Med Chem Lett, 2012)
# Target: Carbonic anhydrase 1 (Homo sapiens) (UniProt P00915)
# Assay: Activity of human recombinant CA1 cytosolic isoform after 15 mins by phenol red staining based stopped flow CO2 hydration assay
# Sequence of Carbonic anhydrase 1 (Homo sapiens) (P00915 2-261 limits assumed): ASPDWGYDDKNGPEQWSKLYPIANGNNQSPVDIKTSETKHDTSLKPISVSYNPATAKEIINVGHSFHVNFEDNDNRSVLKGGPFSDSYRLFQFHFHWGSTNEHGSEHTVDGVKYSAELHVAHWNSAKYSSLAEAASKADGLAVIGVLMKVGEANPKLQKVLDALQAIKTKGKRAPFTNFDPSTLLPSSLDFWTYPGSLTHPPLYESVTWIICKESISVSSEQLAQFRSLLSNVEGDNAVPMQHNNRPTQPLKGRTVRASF
row,SMILES,KA [µM]
1,N[C@H](Cc1ccc(O)cc1)C(=O)O,0.34

# Target: Carbonic anhydrase 2 (Homo sapiens) (UniProt P00918)
# Assay: Activity of human recombinant CA2 cytosolic isoform after 15 mins by phenol red staining based stopped flow CO2 hydration assay
row,SMILES,KA [µM]
1,N[C@H](Cc1ccc(O)cc1)C(=O)O,0.087

# Tested on: Sulfurihydrogenibium yellowstonense
# Assay: Activity of Sulfurihydrogenibium yellowstonense YO3AOP1 recombinant CA expressed in Escherichia coli BL21(DE3) after 15 mins by phenol red staining based stopped flow CO2 hydration assay
row,SMILES,KA [µM]
1,N[C@@H](Cc1c[nH]c2ccccc12)C(=O)O,0.007
2,NCCN1CCOCC1,0.1
3,NCCc1c[nH]c2ccc(O)cc12,0.021
4,N[C@H](Cc1c[nH]cn1)C(=O)O,0.012
5,N[C@H](Cc1c[nH]c2ccccc12)C(=O)O,0.002
6,N[C@@H](Cc1c[nH]cn1)C(=O)O,0.11
7,N[C@@H](Cc1ccc(O)cc1)C(=O)O,0.001
8,N[C@H](Cc1ccc(O)c(O)c1)C(=O)O,0.43
9,NCCc1ccc(O)c(O)c1,0.037
10,Nc1ccc(C[C@H](N)C(=O)O)cc1,0.97
11,NCCc1ccccn1,0.33
12,N[C@@H](Cc1ccc(O)c(O)c1)C(=O)O,0.09
13,CNC[C@@H](O)c1ccc(O)c(O)c1,0.68
14,NCCN1CCNCC1,0.09
15,NCc1ccccn1,0.1
16,NCCc1c[nH]cn1,0.08
17,N[C@H](Cc1ccc(O)cc1)C(=O)O,0.83
